Experimental data published in ChEMBL document CHEMBL4414672, “Synthesis of certain benzothieno[3,2-d]pyrimidine derivatives as a selective SIRT2 inhibitors” (Eur J Med Chem, 2020).

Columns and labels:
Type in all cases: functional
CAKI-1 = test: Growth inhibition of human Caki1 cells at 10^-5 M incubated for 48 hrs by sulforhodamine B assay; conditions: CAKI-1, 48 h, read-out: GI
MDA-MB-468 = test: Growth inhibition of human MDA-MB-468 cells at 10^-5 M incubated for 48 hrs by sulforhodamine B assay; conditions: MDA-MB-468, 48 h, read-out: GI
HT-29 = test: Growth inhibition of human HT-29 cells at 10^-5 M incubated for 48 hrs by sulforhodamine B assay; conditions: HT-29, 48 h, read-out: GI
EKVX = test: Growth inhibition of human EKVX cells at 10^-5 M incubated for 48 hrs by sulforhodamine B assay; conditions: read-out: GI
HOP-62 = test: Growth inhibition of human HOP62 cells at 10^-5 M incubated for 48 hrs by sulforhodamine B assay; conditions: HOP-62, 48 h, read-out: GI
MDA-MB-435 = test: Growth inhibition of human MDA-MB-435 cells at 10^-5 M incubated for 48 hrs by sulforhodamine B assay; conditions: MDA-MB-435, 48 h, read-out: GI
U-251 = test: Growth inhibition of human U251 cells at 10^-5 M incubated for 48 hrs by sulforhodamine B assay; conditions: U-251, 48 h, read-out: GI
K562 = test: Growth inhibition of human K562 cells at 10^-5 M incubated for 48 hrs by sulforhodamine B assay; conditions: K562, 48 h, read-out: GI
OVCAR-4 = test: Growth inhibition of human OVCAR4 cells at 10^-5 M incubated for 48 hrs by sulforhodamine B assay; conditions: OVCAR-4, 48 h, read-out: GI
HOP-92 = test: Growth inhibition of human HOP92 cells at 10^-5 M incubated for 48 hrs by sulforhodamine B assay; conditions: HOP-92, 48 h, read-out: GI
COLO 205 = test: Growth inhibition of human COLO205 cells at 10^-5 M incubated for 48 hrs by sulforhodamine B assay; conditions: COLO 205, 48 h, read-out: GI
SK-MEL-2 = test: Growth inhibition of human SK-MEL-2 cells at 10^-5 M incubated for 48 hrs by sulforhodamine B assay; conditions: SK-MEL-2, 48 h, read-out: GI
HCC 2998 = test: Growth inhibition of human HCC2998 cells at 10^-5 M incubated for 48 hrs by sulforhodamine B assay; conditions: HCC 2998, 48 h, read-out: GI
SF-539 = test: Growth inhibition of human SF539 cells at 10^-5 M incubated for 48 hrs by sulforhodamine B assay; conditions: SF-539, 48 h, read-out: GI
UACC-257 = test: Growth inhibition of human UACC257 cells at 10^-5 M incubated for 48 hrs by sulforhodamine B assay; conditions: UACC-257, 48 h, read-out: GI
PC-3 = test: Growth inhibition of human PC3 cells at 10^-5 M incubated for 48 hrs by sulforhodamine B assay; conditions: PC-3, 48 h, read-out: GI
UO-31 = test: Growth inhibition of human UO31 cells at 10^-5 M incubated for 48 hrs by sulforhodamine B assay; conditions: UO-31, 48 h, read-out: GI
BT-549 = test: Growth inhibition of human BT549 cells at 10^-5 M incubated for 48 hrs by sulforhodamine B assay; conditions: BT-549, 48 h, read-out: GI
KM12 = test: Growth inhibition of human KM12 cells at 10^-5 M incubated for 48 hrs by sulforhodamine B assay; conditions: KM12, 48 h, read-out: GI
NCI-H226 = test: Growth inhibition of human NCI-H226 cells at 10^-5 M incubated for 48 hrs by sulforhodamine B assay; conditions: NCI-H226, 48 h, read-out: GI

Structure (SMILES) | inhibition of growth at 10 µM (CAKI-1) [%] | inhibition of growth at 10 µM (MDA-MB-468) [%] | inhibition of growth at 10 µM (HT-29) [%] | inhibition of growth at 10 µM (EKVX) [%] | inhibition of growth at 10 µM (HOP-62) [%] | inhibition of growth at 10 µM (MDA-MB-435) [%] | inhibition of growth at 10 µM (U-251) [%] | inhibition of growth at 10 µM (K562) [%] | inhibition of growth at 10 µM (OVCAR-4) [%] | inhibition of growth at 10 µM (HOP-92) [%] | inhibition of growth at 10 µM (COLO 205) [%] | inhibition of growth at 10 µM (SK-MEL-2) [%] | inhibition of growth at 10 µM (HCC 2998) [%] | inhibition of growth at 10 µM (SF-539) [%] | inhibition of growth at 10 µM (UACC-257) [%] | inhibition of growth at 10 µM (PC-3) [%] | inhibition of growth at 10 µM (UO-31) [%] | inhibition of growth at 10 µM (BT-549) [%] | inhibition of growth at 10 µM (KM12) [%] | inhibition of growth at 10 µM (NCI-H226) [%]
N=C1Nc2c(sc3ccc(Cl)cc23)C(c2ccc3ccccc3c2)N1 (stereo not given) | -12.5 | -6.39 | -3.45 | 1.13 | 13.8 | -4.57 | -0.54 | 6.06 | 6.63 | 8.76 | -6.53 | -16.2 | 10.9 | -2.62 | 8.66 | -10 | 14.6 | 5.47 | 3.41 | 6.58
O=[N+]([O-])c1cccc(C2NC(=S)Nc3c2sc2ccc(Cl)cc32)c1 (stereo not given) | 22 | 5.75 | 4 | 26.5 | 21.8 | -3.92 | 4.4 | 10.6 | 8.46 | 6.43 | -3.44 | -9.95 | -13.8 | 5.63 | -0.4 | 15.4 | -6.1 | -0.23 | 1.91 | 20.5
O=C1CC(=O)N(C2=Nc3c(sc4ccc(Cl)cc34)C(c3cccc([N+](=O)[O-])c3)N2)N1 (stereo not given) | 10.9 | -2.44 | -6.83 | 21.9 | 9.64 | -10.2 | -10.9 | 0.75 | -11.5 | -17.6 | -8.39 | -3.18 | -8.39 | 4.39 | -8.39 | 2.78 | 38 | -19.4 | -3.57 | 19.4
O=C1/C(=C\c2cccc([N+](=O)[O-])c2)Sc2ccc(Cl)cc21 | -4.55 | 13.1 | -3.12 | 4.33 | -0.47 | 35.4 | 13.8 | 10.5 | 21.4 | 42.7 | -6.01 | 12.4 | -36.5 | -3.16 | -6.4 | -3.94 | 11.3 | 20.8 | -2.29 | 5.97
N=C1Nc2c(sc3ccc(Cl)cc23)C(c2cccc([N+](=O)[O-])c2)N1 (stereo not given) | -10.8 | 1.02 | 1.65 | 15.1 | -6.16 | -4.98 | 0.68 | 9.47 | -4.7 | 19.2 | -31 | -19.5 | 9.09 | 1.35 | 9.45 | -10.1 | 11.1 | 5.75 | 6.62 | 14.4
